According to patent US5466784A, “Monoclonal antibodies to salinomycin and method for detecting the same” (The United States of America as represented by the …, priority 1993, dated 1995):

Legend:
[1] = test system: the 16 anti-salinomycin monoclonal antibodies SAL02-SAL13 and SAL22-SAL25; assay: Competitive inhibition ELISA, result stated for the antibodies as a group; assay type: binding, mouse
Protocol: (§1) The supernatant culture fluid from the cloned hybridomas may also be screened to select for those producing antibodies having a high affinity for salinomycin. Affinity my be measured using a variety of well known techniques, such as ELISA, RIA or equilibrium dialysis using labelled salinomycin. […] In accordance with this embodiment, the antibody containing supernatant is added to a salinomycin coated solid substrate such as the wells of an assay plate, together with a range of concentrations of free salinomycin as a competitor. Following incubation and washing, bound antibody in the wells is determined in the same manner as the db-ELISA. Percent inhibition may be calculated as (1-B/BO)×100 where B is the OD of a well with a competitor and BO is the mean OD of the wells without competitor (control). […] However, for even greater accuracy, the affinity may be alternatively measured at 50% inhibition (IC50).
(§2) For the competitive inhibition ELISA, the wells of a 96-well microtiter plate were coated with 250 ng SAL-BSA and blocked with ovalbumin as previously described. Two hundred μL of a competitor (free salinomycin at 20-100 ng/100 μL) in assay buffer, were added to row 2 of an antigen-coated well. The remaining wells in that row received 100 μL of assay buffer. A 100 μL aliquot of competitor was withdrawn from row 2 and serially diluted across the microtiter plate into wells 3-10. Wells 11 and 12 received no competitor. […] Plates were incubated for 1-h at 37° C. and processed as described above in the db ELISA. Percent inhibition was calculated by the following method: (1-B/B0)×100where B=the OD of a well with a competitor and B0 =mean ODs of the wells without competitor (i.e. wells 11 and 12).
(§3) Antibody Characterization. The 16 monoclonal antibodies were further evaluated for their ability to distinguish between commonly used ionophoric coccidiostats. The competitive inhibition ELISA described supra was repeated with the ionophores salinomycin (SAL), narasin (NAR), lasalocid (LAS) and monensin (MON) as competitors.

[2] = test system: anti-salinomycin monoclonal antibody SAL02 (IgG2a, kappa; hybridoma ATCC HB 11954); assay: Competitive inhibition ELISA (SAL-BSA coated wells); assay type: binding, mouse; conditions: mean ± SD, n = 10 assays
Protocol: as §1, §2, §3

[3] = test system: anti-salinomycin monoclonal antibody SAL10 (IgG2a, kappa); assay: as above; assay type: binding, mouse; conditions: for Mean 50% Inhibition Value (IC50) of competitor: mean ± SD, n = 10 assays
Protocol: as §1, §2, §3

[4] = test system: anti-salinomycin monoclonal antibody SAL07 (IgG2a, kappa); assay: as above; assay type: binding, mouse; conditions: mean ± SD, n = 10 assays
Protocol: as §1, §2, §3

[5] = test system: anti-salinomycin monoclonal antibody SAL03 (IgG2a, kappa); assay: as above; assay type: binding, mouse; conditions: mean ± SD, n = 10 assays
Protocol: as §1, §2, §3

[6] = test system: anti-salinomycin monoclonal antibody SAL09 (IgG2a, kappa); assay: as above; assay type: binding, mouse; conditions: mean ± SD, n = 10 assays
Protocol: as §1, §2, §3

[7] = test system: anti-salinomycin monoclonal antibody SAL23 (IgG2a, kappa); assay: as above; assay type: binding, mouse; conditions: mean ± SD, n = 10 assays
Protocol: as §1, §2, §3

[8] = test system: anti-salinomycin monoclonal antibody SAL12 (IgG2a, kappa); assay: as above; assay type: binding, mouse; conditions: mean ± SD, n = 10 assays
Protocol: as §1, §2, §3

[9] = test system: anti-salinomycin monoclonal antibody SAL04 (IgG2a, kappa); assay: as above; assay type: binding, mouse; conditions: mean ± SD, n = 10 assays
Protocol: as §1, §2, §3

[10] = test system: anti-salinomycin monoclonal antibody SAL11 (IgG2a, kappa); assay: as above; assay type: binding, mouse; conditions: mean ± SD, n = 10 assays
Protocol: as §1, §2, §3

[11] = test system: anti-salinomycin monoclonal antibody SAL25 (IgG2a, kappa); assay: as above; assay type: binding, mouse; conditions: mean ± SD, n = 10 assays
Protocol: as §1, §2, §3

[12] = test system: anti-salinomycin monoclonal antibody SAL22 (IgG2a, kappa); assay: as above; assay type: binding, mouse; conditions: mean ± SD, n = 10 assays
Protocol: as §1, §2, §3

[13] = test system: anti-salinomycin monoclonal antibody SAL13 (IgG2a, kappa); assay: as above; assay type: binding, mouse; conditions: mean ± SD, n = 10 assays
Protocol: as §1, §2, §3

[14] = test system: anti-salinomycin monoclonal antibody SAL24 (IgG2a, kappa); assay: as above; assay type: binding, mouse; conditions: mean ± SD, n = 10 assays
Protocol: as §1, §2, §3

[15] = test system: anti-salinomycin monoclonal antibody SAL08 (IgG2a, kappa); assay: as above; assay type: binding, mouse; conditions: mean ± SD, n = 10 assays
Protocol: as §1, §2, §3

[16] = test system: anti-salinomycin monoclonal antibody SAL06 (IgG2a, kappa); assay: as above; assay type: binding, mouse; conditions: mean ± SD, n = 10 assays
Protocol: as §1, §2, §3

[17] = test system: anti-salinomycin monoclonal antibody SAL05 (IgG2a, kappa); assay: as above; assay type: binding, mouse; conditions: for Mean 50% Inhibition Value (IC50) of competitor: mean ± SD, n = 10 assays
Protocol: as §1, §2, §3

[18] = test system: monoclonal antibodies to salinomycin of Miller et al. (immunogen linked through succinate at C-20); conditions: prior art antibodies; cited from earlier work
[19] = at or below 100 ng/well (10 ppm), Table I footnote
[20] = at or below 1000 ng/well, all 16 antibodies

Row | SMILES | inhibition of antigen-antibody binding by competitor [1, 19] | inhibition of antigen-antibody binding by competitor [1, 20] | Mean 50% Inhibition Value (IC50) of competitor [2] | Mean 50% Inhibition Value (IC50) of competitor [3] | Mean 50% Inhibition Value (IC50) of competitor [4] | Mean 50% Inhibition Value (IC50) of competitor [5] | Mean 50% Inhibition Value (IC50) of competitor [6] | Mean 50% Inhibition Value (IC50) of competitor [7] | Mean 50% Inhibition Value (IC50) of competitor [8] | Mean 50% Inhibition Value (IC50) of competitor [9] | Mean 50% Inhibition Value (IC50) of competitor [10] | Mean 50% Inhibition Value (IC50) of competitor [11] | Mean 50% Inhibition Value (IC50) of competitor [12] | Mean 50% Inhibition Value (IC50) of competitor [13] | Mean 50% Inhibition Value (IC50) of competitor [14] | Mean 50% Inhibition Value (IC50) of competitor [15] | Mean 50% Inhibition Value (IC50) of competitor [16] | Mean 50% Inhibition Value (IC50) of competitor [17] | further results
1 | CC[C@@H](C(=O)[C@@H](C)[C@@H](O)[C@H](C)CCc1ccc(C)c(O)c1C(=O)O)[C@H]1O[C@](CC)([C@H]2CC[C@](O)(CC)[C@H](C)O2)C[C@@H]1C [lasalocid] | Neither Lasalocid or Monensin inhibited the antigenantibody binding | no inhibition of antigen-antibody binding | – | – | – | – | – | – | – | – | – | – | – | – | – | – | – | – | –
2 | CC[C@@]1([C@@H]2O[C@@H]([C@H]3O[C@@](O)(CO)[C@H](C)C[C@@H]3C)C[C@@H]2C)CC[C@H]([C@]2(C)CC[C@]3(C[C@H](O)[C@@H](C)[C@@H]([C@@H](C)[C@@H](OC)[C@H](C)C(=O)O)O3)O2)O1 [monensin] | Neither Lasalocid or Monensin inhibited the antigenantibody binding | no inhibition of antigen-antibody binding | – | – | – | – | – | – | – | – | – | – | – | – | – | – | – | – | –
3 | CC[C@@H](C(=O)O)[C@@H]1O[C@@H]([C@@H](C)[C@H](O)[C@H](C)C(=O)[C@H](CC)[C@H]2O[C@]3(C=C[C@@H](O)[C@]4(CC[C@@](C)([C@H]5CC[C@](O)(CC)[C@H](C)O5)O4)O3)[C@H](C)C[C@@H]2C)[C@@H](C)C[C@@H]1C [narasin] | – | – | 0.97 ± 0.97 ng/well | 1.18 ± 0.49 ng/well | 0.93 ± 0.85 ng/well | 0.82 ± 0.58 ng/well | 1.17 ± 0.27 ng/well | 0.99 ± 0.25 ng/well | 0.67 ± 0.19 ng/well | 0.34 ± 0.15 ng/well | 0.69 ± 0.28 ng/well | 0.68 ± 0.34 ng/well | 0.51 ± 0.09 ng/well | 0.55 ± 0.20 ng/well | 0.98 ± 0.46 ng/well | 1.09 ± 0.15 ng/well | 0.39 ± 0.15 ng/well | 0.52 ± 0.62 ng/well | –
4 | CC[C@@H](C(=O)[C@@H](C)[C@@H](O)[C@H](C)[C@@H]1O[C@@H]([C@@H](CC)C(=O)O)CC[C@@H]1C)[C@H]1O[C@]2(C=C[C@@H](O)[C@]3(CC[C@@](C)([C@H]4CC[C@](O)(CC)[C@H](C)O4)O3)O2)[C@H](C)C[C@@H]1C [salinomycin] | – | – | 0.62 ± 0.11 ng/well | 1.76 ± 0.29 ng/well | 1.44 ± 1.28 ng/well | 0.78 ± 0.72 ng/well | 0.97 ± 0.28 ng/well | 0.92 ± 0.15 ng/well | 0.49 ± 0.28 ng/well | 0.35 ± 0.17 ng/well | 0.57 ± 0.25 ng/well | 0.61 ± 0.18 ng/well | 0.56 ± 0.23 ng/well | 0.75 ± 0.49 ng/well | 1.15 ± 0.45 ng/well | 0.60 ± 0.30 ng/well | 0.78 ± 0.62 ng/well | 0.33 ± 0.10 ng/well | concentration that resulted in 20% inhibition (IC20) of control activity ([3]; free salinomycin as competitor): 0.793 ng; concentration that resulted in 50% inhibition IC50 ([3]; free salinomycin as competitor): 1.76 ng; concentration that resulted in 20% inhibition (IC20) of control activity ([17]; free salinomycin as competitor): 0.174 ng; concentration that resulted in 50% inhibition IC50 ([17]; free salinomycin as competitor): 0.33 ng; detection limit (reported) [18]: 50 ng; sensitivity (reported) [18]: 50 ng per well
